Results from US11249070B2, “Anti-cancer drug assessment method” (TOPPAN PRINTING CO., LTD., priority 2016, dated 2022).

Assays:
[1] = system: HT29; assay: CNT with 5-FU with or without bevacizumab, 2D, spheroid, 3D (Example 5); type: cell-based, human; details: bevacizumab 2 μg per well in the combination, 72 hours
Text: Moreover, for comparison, in place of the above cell structures, structures were produced by culturing cancer cells so as to form a single layer in a general culture container (2D method), and spheroids were produced by spheroid culture of a mixture of 2×10^6 NHDF, 3×10^4 HUVEC, and 2×10^4 cancer cells (spheroid method).

[2] = system: HCT116; assay: as above; type: cell-based, human; details: bevacizumab 2 μg per well in the combination, 72 hours
[3] = system: human lung adenocarcinoma cell line A549; assay: CNT with 5-FU with or without bevacizumab, lung stromal cells NHLF/HMVEC-L, flow cytometer (Example 10); type: cell-based; details: 5-FU 100 μM, bevacizumab 2 μg per well in the combination, 72 hours
Procedure: (§1) Thereafter, 400 μL of Fixation/Permilization solution (554722, produced by BD Bioscience) was added for fixation at 4° C. for 30 minutes, and the liquid component was removed. Then, 400 μL of Perm/Wash buffer attached to the kit was added, and centrifugation was performed at room temperature at 1120×g for 5 minutes. Thereafter, a primary antibody Monoclonal Mouse Anti-human Cytokeratin 7 (M7018, produced by DAKO) diluted with 5% FBS-containing PBS was added and allowed to react at 4° C. for 30 minutes. Then, the liquid component was removed, and washing was performed twice using Perm/Wash buffer attached to the kit. A secondary antibody Goat anti-Mouse IgG1 Cross-Adsorbed Secondary Antibody, Alexa Fluor 546 (A-11030, produced by Thermo Fischer Scientific) diluted with 5% FBS-containing PBS was added and allowed to react at 4° C. for 30 minutes. Thereafter, the liquid component was removed, washing was performed twice using Perm/Wash buffer attached to the kit, and the resultant was resuspended in 350 μL of 5% FBS-containing PBS.
(§2) The number of cells emitting fluorescence in the suspension after fixation and staining was counted as viable cancer cells. The cell count was performed using a flow cytometer (produced by Sony).

[4] = system: human lung adenocarcinoma cell line A549; assay: CNT with 5-FU with or without bevacizumab, NHDF/HUVEC cell structure, flow cytometer (Example 11); type: cell-based; details: 3D (NHDF, HUVEC), bevacizumab 2 μg per well in the combination, 72 hours
Procedure: as §1, §2

O=c1[nH]cc(F)c(=O)[nH]1 [5-FU] was tested, and the “CNT (%) Average value” ([1]; 2D, 5-FU 100 μM) was 54.2%, the “CNT (%) Average value” ([1]; 2D, 5-FU 1 mM) was 25.8% and the “CNT (%) Average value” ([1]; 3D, 5-FU 1 mM) was 75.0%. For the same compound, the “CNT (%) Average value” ([1]; Spheroid, 5-FU 100 μM) was 57.5%, the “CNT (%) Average value” ([1]; Spheroid, 5-FU 1 mM) was 44.8% and the “CNT (%) Average value” ([2]; 2D, 5-FU 100 μM) was 38.9%. For the same compound, the “CNT (%) Average value” ([2]; 2D, 5-FU 1 mM) was 15.3%, the “CNT (%) Average value” ([2]; 3D, 5-FU 100 μM) was 86.9% and the “CNT (%) Average value” ([2]; Spheroid, 5-FU 100 μM) was 62.3%. For the same compound, the “CNT (%) Average value” ([2]; Spheroid, 5-FU 1 mM) was 27.7%, the “CNT (%) Average value” ([3]; 2D) was 37.7% and the “CNT (%) Average value” ([3]; 3D (NHLF, HMVEC-L)) was 72.9%. The “CNT (%) Average value” ([4]; 5-FU 100 μM) was 28.8% and the “CNT (%) Average value” ([4]; 5-FU 1 mM) was 7.7%.
